Where two headings read alike, the source gives them in different places.
Columns and labels:
[1] = tested on: Phytophthora infestans (the causal agent of tomato late blight); experiment: whole plant or invertebrate; type: in vivo; conditions: for TLB Obsd (disease control rating): Table B; for TLB Obsd (observed effect, tomato late blight): component (b) alone; for TLB Obsd: Table E
[2] = tested on: Pseudoperonospora cubensis (the causal agent of cucumber downy mildew); experiment: Test B: cucumber downy mildew, preventive spray on cucumber seedlings; type: in vivo; conditions: for CDM Obsd (disease control rating): Table B

Question: With Cc1ccc(C(C)NC(=O)[C@@H](NC(=O)OC(C)C)C(C)C)cc1 (stereo partly shown) [iprovalicarb] as the molecule, how does the “TLB Obsd (disease control rating)” value ([1]; component (b) alone 0.08 ppm) read?
Answer: The value was 0%.

Question: What about the “TLB Obsd (disease control rating)” value ([1]; component (b) alone 0.4 ppm) of the same molecule?
Answer: Its value is 9%.

Question: And the “TLB Obsd (disease control rating)” value ([1]; component (b) alone 2 ppm)?
Answer: Its value is 39%.

Question: What about the “TLB Obsd (disease control rating)” value ([1]; component (b) alone 10 ppm) of the same molecule?
Answer: The value was 99%.

Question: And the “TLB Obsd (disease control rating)” value ([1]; component (b) alone 40 ppm)?
Answer: The value was 100%.

Question: And the “TLB Obsd (observed effect, tomato late blight)” value ([1]; 0.08 ppm)?
Answer: The value was 0.

Question: And the “TLB Obsd (observed effect, tomato late blight)” value ([1]; 0.4 ppm)?
Answer: Its value is 21.

Question: What about the “TLB Obsd (observed effect, tomato late blight)” value ([1]; 2 ppm) of the same molecule?
Answer: Its value is 74.

Question: What about the “TLB Obsd (observed effect, tomato late blight)” value ([1]; 10 ppm) of the same molecule?
Answer: The value was 98.

Question: And the “TLB Obsd (observed effect, tomato late blight)” value ([1]; 40 ppm)?
Answer: The value was 100.

Question: And the “CDM Obsd (disease control rating)” value ([2]; component (b) alone 0.08 ppm)?
Answer: The value was 47%.

Question: And the “CDM Obsd (disease control rating)” value ([2]; component (b) alone 0.4 ppm)?
Answer: The value was 57%.

Question: What about the “CDM Obsd (disease control rating)” value ([2]; component (b) alone 2 ppm) of the same molecule?
Answer: Its value is 77%.

Question: What about the “CDM Obsd (disease control rating)” value ([2]; component (b) alone 10 ppm) of the same molecule?
Answer: Its value is 100%.

Question: What about the “CDM Obsd (disease control rating)” value ([2]; component (b) alone 40 ppm) of the same molecule?
Answer: Its value is 100%.

Question: What about the “CDM Obsd” value ([2]; component (b) alone 0.08 ppm (Compound 1 0 ppm)) of the same molecule?
Answer: Its value is 26%.

Question: What about the “CDM Obsd” value ([2]; component (b) alone 0.4 ppm (Compound 1 0 ppm)) of the same molecule?
Answer: The value was 26%.

Question: And the “CDM Obsd” value ([2]; component (b) alone 2 ppm (Compound 1 0 ppm))?
Answer: Its value is 26%.

Question: What about the “CDM Obsd” value ([2]; component (b) alone 10 ppm (Compound 1 0 ppm)) of the same molecule?
Answer: Its value is 88%.

Question: And the “CDM Obsd” value ([2]; component (b) alone 40 ppm (Compound 1 0 ppm))?
Answer: Its value is 100%.

Question: What about the “CDM Obsd (observed effect, cucumber downy mildew)” value ([2]; component (b) alone, 0.08 ppm) of the same molecule?
Answer: Its value is 0.

Question: And the “CDM Obsd (observed effect, cucumber downy mildew)” value ([2]; component (b) alone, 0.4 ppm)?
Answer: Its value is 0.

Question: What about the “CDM Obsd (observed effect, cucumber downy mildew)” value ([2]; component (b) alone, 2 ppm) of the same molecule?
Answer: The value was 0.

Question: And the “CDM Obsd (observed effect, cucumber downy mildew)” value ([2]; component (b) alone, 10 ppm)?
Answer: The value was 99.

Question: What about the “CDM Obsd (observed effect, cucumber downy mildew)” value ([2]; component (b) alone, 40 ppm) of the same molecule?
Answer: Its value is 100.

Question: With CO/N=C(/C(=O)OC)c1ccccc1COc1ccccc1C [kresoxim-methyl] as the molecule, how does the pest or weed control at 0.4 ppm ([1]; Phytophthora infestans, read-out: TLB Obsd (disease control rating), Table C, component (b) alone 0.4 ppm) read?
Answer: Its pest or weed control at 0.4 ppm is 9%.

Question: What about the pest or weed control at 2 ppm ([1]; Phytophthora infestans, read-out: TLB Obsd (disease control rating), Table C, component (b) alone 2 ppm) of the same molecule?
Answer: Its pest or weed control at 2 ppm is 33%.

Question: What about the pest or weed control at 10 ppm ([1]; Phytophthora infestans, read-out: TLB Obsd (disease control rating), Table C, component (b) alone 10 ppm) of the same molecule?
Answer: Its pest or weed control at 10 ppm is 80%.

Question: What about the pest or weed control at 40 ppm ([1]; Phytophthora infestans, read-out: TLB Obsd (disease control rating), Table C, component (b) alone 40 ppm) of the same molecule?
Answer: Its pest or weed control at 40 ppm is 99%.

Question: What about the pest or weed control at 200 ppm ([1]; Phytophthora infestans, read-out: TLB Obsd (disease control rating), Table C, component (b) alone 200 ppm) of the same molecule?
Answer: Its pest or weed control at 200 ppm is 99%.

Question: And the pest or weed control at 0.04 ppm ([1]; Phytophthora infestans, read-out: TLB Obsd, component (b) alone, 0.04 ppm)?
Answer: Its pest or weed control at 0.04 ppm is 8%.

Question: And the pest or weed control at 2 ppm ([1]; Phytophthora infestans, read-out: TLB Obsd, component (b) alone, 2 ppm)?
Answer: Its pest or weed control at 2 ppm is 32%.

Question: And the pest or weed control at 10 ppm ([1]; Phytophthora infestans, read-out: TLB Obsd, component (b) alone, 10 ppm)?
Answer: Its pest or weed control at 10 ppm is 86%.

Question: What about the pest or weed control at 40 ppm ([1]; Phytophthora infestans, read-out: TLB Obsd, component (b) alone, 40 ppm) of the same molecule?
Answer: Its pest or weed control at 40 ppm is 96%.

Question: And the pest or weed control at 200 ppm ([1]; Phytophthora infestans, read-out: TLB Obsd, component (b) alone, 200 ppm)?
Answer: Its pest or weed control at 200 ppm is 100%.

Question: And the pest or weed control at 0.4 ppm ([2]; Pseudoperonospora cubensis, Table C, component (b) alone 0.4 ppm, read-out: CDM Obsd (disease control rating))?
Answer: Its pest or weed control at 0.4 ppm is 47%.

Question: And the pest or weed control at 2 ppm ([2]; Pseudoperonospora cubensis, Table C, component (b) alone 2 ppm, read-out: CDM Obsd (disease control rating))?
Answer: Its pest or weed control at 2 ppm is 47%.

Question: What about the pest or weed control at 10 ppm ([2]; Pseudoperonospora cubensis, Table C, component (b) alone 10 ppm, read-out: CDM Obsd (disease control rating)) of the same molecule?
Answer: Its pest or weed control at 10 ppm is 53%.

Question: What about the pest or weed control at 40 ppm ([2]; Pseudoperonospora cubensis, Table C, component (b) alone 40 ppm, read-out: CDM Obsd (disease control rating)) of the same molecule?
Answer: The pest or weed control at 40 ppm was 57%.

Question: What about the pest or weed control at 200 ppm ([2]; Pseudoperonospora cubensis, Table C, component (b) alone 200 ppm, read-out: CDM Obsd (disease control rating)) of the same molecule?
Answer: Its pest or weed control at 200 ppm is 100%.

Question: And the pest or weed control at 0.4 µg/mL ([2]; Pseudoperonospora cubensis, component (b) alone 0.4 ppm (Compound 1 0 ppm), read-out: CDM Obsd)?
Answer: Its pest or weed control at 0.4 µg/mL is 47%.

Question: What about the pest or weed control at 2 µg/mL ([2]; Pseudoperonospora cubensis, component (b) alone 2 ppm (Compound 1 0 ppm), read-out: CDM Obsd) of the same molecule?
Answer: Its pest or weed control at 2 µg/mL is 47%.

Question: What about the pest or weed control at 10 µg/mL ([2]; Pseudoperonospora cubensis, component (b) alone 10 ppm (Compound 1 0 ppm), read-out: CDM Obsd) of the same molecule?
Answer: The pest or weed control at 10 µg/mL was 47%.

Question: What about the pest or weed control at 40 µg/mL ([2]; Pseudoperonospora cubensis, component (b) alone 40 ppm (Compound 1 0 ppm), read-out: CDM Obsd) of the same molecule?
Answer: The pest or weed control at 40 µg/mL was 99%.

Question: What about the pest or weed control at 200 µg/mL ([2]; Pseudoperonospora cubensis, component (b) alone 200 ppm (Compound 1 0 ppm), read-out: CDM Obsd) of the same molecule?
Answer: The pest or weed control at 200 µg/mL was 100%.

Question: What about the pest or weed control at 0.04 ppm ([2]; Pseudoperonospora cubensis, component (b) alone, 0.04 ppm, read-out: CDM Obsd) of the same molecule?
Answer: Its pest or weed control at 0.04 ppm is 9%.

Question: What about the pest or weed control at 2 ppm ([2]; Pseudoperonospora cubensis, component (b) alone, 2 ppm, read-out: CDM Obsd) of the same molecule?
Answer: The pest or weed control at 2 ppm was 9%.

Question: And the pest or weed control at 10 ppm ([2]; Pseudoperonospora cubensis, component (b) alone, 10 ppm, read-out: CDM Obsd)?
Answer: Its pest or weed control at 10 ppm is 30%.

Question: And the pest or weed control at 40 ppm ([2]; Pseudoperonospora cubensis, component (b) alone, 40 ppm, read-out: CDM Obsd)?
Answer: Its pest or weed control at 40 ppm is 37%.

Question: And the pest or weed control at 200 ppm ([2]; Pseudoperonospora cubensis, component (b) alone, 200 ppm, read-out: CDM Obsd)?
Answer: Its pest or weed control at 200 ppm is 100%.

Question: For C#CCOc1ccc(CCNC(=O)C(OCC#C)c2ccc(Cl)cc2)cc1OC (stereo not shown) [mandipropamid], which “TLB Obsd” value ([1]; component (b) alone at 0.016 ppm) is on record?
Answer: The value was 26%.

Question: What about the “TLB Obsd” value ([1]; component (b) alone at 0.08 ppm) of the same molecule?
Answer: The value was 33%.

Question: What about the “TLB Obsd” value ([1]; component (b) alone at 0.4 ppm) of the same molecule?
Answer: Its value is 88%.

Question: And the “TLB Obsd” value ([1]; component (b) alone at 2 ppm)?
Answer: Its value is 100%.

Question: And the “TLB Obsd” value ([1]; component (b) alone at 10 ppm)?
Answer: Its value is 100%.

Question: And the “TLB Obsd (observed effect, tomato late blight)” value ([1]; 0.08 ppm)?
Answer: Its value is 80.

Question: And the “TLB Obsd (observed effect, tomato late blight)” value ([1]; 0.4 ppm)?
Answer: Its value is 97.

Question: What about the “TLB Obsd (observed effect, tomato late blight)” value ([1]; 2 ppm) of the same molecule?
Answer: Its value is 99.

Question: What about the “TLB Obsd (observed effect, tomato late blight)” value ([1]; 10 ppm) of the same molecule?
Answer: The value was 100.

Question: What about the “TLB Obsd (observed effect, tomato late blight)” value ([1]; 40 ppm) of the same molecule?
Answer: Its value is 100.

Question: What about the “CDM Obsd” value ([2]; Table F, component (b) alone at 0.016 ppm) of the same molecule?
Answer: The value was 33%.

Question: And the “CDM Obsd” value ([2]; Table F, component (b) alone at 0.08 ppm)?
Answer: Its value is 97%.

Question: And the “CDM Obsd” value ([2]; Table F, component (b) alone at 0.4 ppm)?
Answer: Its value is 100%.

Question: And the “CDM Obsd” value ([2]; Table F, component (b) alone at 2 ppm)?
Answer: Its value is 100%.

Question: And the “CDM Obsd” value ([2]; Table F, component (b) alone at 10 ppm)?
Answer: Its value is 100%.

Question: What about the “CDM Obsd (observed effect, cucumber downy mildew)” value ([2]; component (b) alone, 0.08 ppm) of the same molecule?
Answer: Its value is 86.

Question: What about the “CDM Obsd (observed effect, cucumber downy mildew)” value ([2]; component (b) alone, 0.4 ppm) of the same molecule?
Answer: The value was 100.

Question: What about the “CDM Obsd (observed effect, cucumber downy mildew)” value ([2]; component (b) alone, 2 ppm) of the same molecule?
Answer: Its value is 100.

Question: And the “CDM Obsd (observed effect, cucumber downy mildew)” value ([2]; component (b) alone, 10 ppm)?
Answer: The value was 100.

Question: What about the “CDM Obsd (observed effect, cucumber downy mildew)” value ([2]; component (b) alone, 40 ppm) of the same molecule?
Answer: Its value is 100.

Source: patent US8449898B2 (priority 2007, dated 2013)
